This is an account of results in patent US12161694B2, “Methods and compositions for regulating innate lymphoid cell inflammatory responses” (The Broad Institute, Inc., priority 2017, dated 2024).

In assay [1] the test system is lung-resident ILCs. In words: Droplet-based scRNA-seq of lung-resident ILCs after in vivo treatment. Details: species or system mouse. The note with it: PBS, NMU, IL-25, combination. An excerpt:
Mice and in vivo ILC activation. C57Bl/6J mice were purchased from the Jackson Laboratory. Nmur1-LacZ reporter mice with a LacZ cassette knocked into the Nmur1 locus were rederived from Nmur1^tm1.1(KOMP)Vleg sperm obtained from the trans-NIH Knock-Out Mouse Project (KOMP) Repository. Mice were housed under specific-pathogen-free conditions. For experiments, mice were matched for sex and age, and most mice were 6-10 weeks old. Where indicated, mice were anesthetized with Isoflurane and treated intranasally with the indicated stimuli (500 ng IL-25, 500 ng IL-33, or 20 μg Neuromedin U) daily for three consecutive days. The total administered volume was 20 μl for all conditions. Mice were randomly assigned to treatment groups after matching for sex and age. […]
Fluorescence-activated cell sorting of innate lymphoid cells. […]
Analysis of droplet-based scRNA-Seq data: Initial QC. Gene counts were obtained by aligning reads to the mm10 genome using CellRanger software (10× Genomics), with the genome reannotated at the 3′ end of Nmur1 (see main text). […]
Analysis of droplet-based scRNA-Seq samples: Signature scores. Applicants calculated signature scores as the log of the geometric mean of the TPX values for the genes in the signature. […] Then the signature score for that cell is calculated as log(IIg(xg+1)^1/m) which is equivalent to the arithmetic mean of the log TPX values. […]

The test system of assay [2] is lung-resident ILCs. In words: Flow cytometry of lung ILCs after in vivo treatment (Ki-67, ILC frequency, IL-17RB, surface and intracellular markers). Details: species or system mouse. An excerpt: Mice and in vivo ILC activation. C57Bl/6J mice were purchased from the Jackson Laboratory. Nmur1-LacZ reporter mice with a LacZ cassette knocked into the Nmur1 locus were rederived from Nmur1^tm1.1(KOMP)Vleg sperm obtained from the trans-NIH Knock-Out Mouse Project (KOMP) Repository. Mice were housed under specific-pathogen-free conditions. For experiments, mice were matched for sex and age, and most mice were 6-10 weeks old. Where indicated, mice were anesthetized with Isoflurane and treated intranasally with the indicated stimuli (500 ng IL-25, 500 ng IL-33, or 20 μg Neuromedin U) daily for three consecutive days. The total administered volume was 20 μl for all conditions. Mice were randomly assigned to treatment groups after matching for sex and age. […] Mice were treated intranasally with 10 μg HDM on day 0, 7, 8, and 9, prior to sacrifice on day 10. […]
Flow cytometry. […] Cells were stained on ice with antibodies for surface molecules and the live/dead marker 7AAD and analyzed on a LSRFortessa (BD Biosciences). […]
Lung analysis. […] BALF was centrifuged, and the supernatant was used for analyzing cytokine levels and the cell pellet was resuspended, counted, and used for flow cytometry. […] Where indicated, cells were diluted in 10% Trypan Blue and viable cells counted using a hemocytometer. […]

“Also recorded” adds a separate entry of the source. Where no end group is shown, it is not given here.

On to “Neuromedin U (FRVDEEFQSPFASQSRGYFLFRPRN-NH2; listed as Homo sapiens) [NMU, neuropeptide ligand of Nmur1 (US Biological)]”, for which the “transcriptional profiles of ILCs (tSNE localization)” value in the assay with lung-resident ILCs [1] is “largely localized with those from control mice; also recorded: transcriptionally similar to control ILCs”. Besides, the “Galectin-3 (Lgals3) and gp49 (Lilrb4a) expression on ILCs” value in the assay on lung-resident ILCs [2] is “up-regulated”.
